Assay results as given in the supplement of paper PMC10307832.

What was measured:
Assay in all cases: relative viability (nuclei count vs DMSO), 5 days (fraction); higher = more cells survive
[1] = compound: C1COCCN1C2=NC(=NC3=C2OC4=C3C=CC=N4)C5=CC(=CC=C5)NC(=O)C6=CN=C(C=C6)N + CC(=O)Nc1cccc(-n2c(=O)n(C3CC3)c(=O)c3c(Nc4ccc(I)cc4F)n(C)c(=O)c(C)c32)c1 [Trametinib] (partner 0.02 µM)
In short: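 Values are medians from duplicate plates. Each reflects relative viability, defined as the nuclei count of treated wells over that of vehicle wells. Lung cancer cell lines in 1536-well plates were pin-tool dosed one day after seeding with one drug alone or with a fixed anchor-drug dose plus five library-drug doses (not always all listed) in √10 steps, then fixed, stained and imaged at 4× after 5 days.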

[2] = compound: C1COCCN1C2=NC(=NC3=C2OC4=C3C=CC=N4)C5=CC(=CC=C5)NC(=O)C6=CN=C(C=C6)N
In short: (§1)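 MetaXpress counted nuclei in 4× images of lung cancer cell lines that had been fixed, permeabilised and Hoechst-stained in one step. Before that, cells in 1536-well plates were kept overnight at 37 °C, pinned with five √10-spaced library-drug doses on vehicle-anchored plates, and cultured 5 days without medium change. Viability takes treated-well nuclei over vehicle-well nuclei and uses the median across plates. Plates were accepted only at control CV below 25% and at least one doubling.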

Entinostat = compound: Nc1ccccc1NC(=O)c1ccc(CNC(=O)OCc2cccnc2)cc1 [Entinostat]
In short: as §1

SGI-1776 = compound: CN1CCC(CNc2ccc3ncc(-c4cccc(OC(F)(F)F)c4)n3n2)CC1 [SGI-1776]
In short: as §1

Cell Line	relative viability ([1]; first compound 0.02 µM)	relative viability ([1]; first compound 0.06325 µM)	relative viability ([1]; first compound 0.2 µM)	relative viability ([1]; first compound 0.6325 µM)	relative viability ([1]; first compound 2 µM)	relative viability ([2]; 0.02 µM)	relative viability ([2]; 0.06325 µM)	relative viability ([2]; 0.2 µM)	relative viability ([2]; 0.6325 µM)	relative viability ([2]; 2 µM)	relative viability (Entinostat; 0.02 µM)	relative viability (Entinostat; 0.06325 µM)	relative viability (Entinostat; 0.2 µM)	relative viability (Entinostat; 0.6325 µM)	relative viability (Entinostat; 2 µM)	relative viability (SGI-1776; 0.08 µM)	relative viability (SGI-1776; 0.8 µM)	relative viability (SGI-1776; 2.53 µM)	relative viability (SGI-1776; 8 µM)
NCI-H2085	0.586	0.582	0.359	0.549	0.359	0.936	1.03	1.01	0.946	0.75	0.98	0.974	1	0.756	0.559	0.95	1.07	1.03	0.9
NCI-H1792	0.451	0.477	0.368	0.374	0.231	0.953	0.965	0.893	0.655	0.393	1.16	1.1	1.02	0.649	0.451	1.01	0.984	0.859	0.662
NCI-H2347	0.302	0.264	0.289	0.314	0.258	0.983	1.09	1.09	0.977	0.741	1.03	0.992	0.91	0.521	0.366	1.13	1.08	1.02	0.963
201T	0.697	0.713	0.705	0.686	0.563	0.963	0.994	0.985	1	0.897	1.04	1.04	1.03	0.712	0.624	1.01	0.991	0.964	0.891
NCI-H1755	0.741	0.827	0.741	0.754	0.617	0.997	1.06	0.999	0.956	0.841	0.98	0.94	0.927	0.665	0.467	0.954	0.993	0.945	0.819
NCI-H596	0.772	0.87	0.735	0.724	0.593	0.993	1.11	0.944	0.948	0.832	1.03	0.937	0.975	0.854	0.588	0.943	1.11	0.869	0.731
NCI-H1651	0.842	0.867	0.836	0.818	0.731	0.994	0.994	0.978	0.951	0.8	1.02	0.971	1.02	0.908	0.692	1	0.999	0.971	0.929
NCI-H1437	0.492	0.551	0.511	0.419	0.224	0.978	1	0.957	0.995	0.56	0.952	0.652	0.476	0.34	0.237	1.02	1.04	0.972	0.887
NCI-H1975	0.315	0.362	0.307	0.348	0.31	0.881	0.968	0.895	0.874	0.684	0.942	0.826	0.784	0.466	0.267	1.06	1	0.925	0.79
BEN	1	0.947	1.11	0.888	0.939	1.03	0.917	1.02	0.934	0.837	0.97	1.04	0.835	0.653	0.357	0.984	0.955	0.819	0.812
NCI-H322M	0.449	0.519	0.521	0.412	0.475	0.903	0.923	0.944	0.854	0.725	1.02	1.11	1.14	0.961	0.859	0.975	1.01	1.05	0.69
SK-MES-1	0.474	0.518	0.458	0.426	0.395	1.02	1.08	0.925	0.868	0.673	1.01	1.15	1.19	1.02	0.701	1.06	1.07	1	0.868
HOP-62	0.403	0.415	0.323	0.359	0.227	0.974	1.15	1.09	0.961	0.762	1.05	0.974	0.97	0.633	0.356	1.09	0.956	1.05	0.998
HCC-366	0.4	0.341	0.394	0.231	0.138	1.03	1.07	1.05	1.04	0.738	1.03	1.09	0.943	0.515	0.154	0.957	1.02	0.989	1.02
NCI-H2405	0.478	0.722	0.672	0.553	0.418	0.987	1.05	0.97	0.953	0.779	1.03	1.15	0.972	0.915	0.609	1.04	1.08	0.793	0.826
NCI-H1650	0.535	0.497	0.575	0.526	0.39	0.865	1.01	0.8	0.896	0.618	0.999	0.929	0.964	0.635	0.334	0.945	0.879	0.84	0.442
NCI-H1648	0.54	0.534	0.456	0.405	0.482	0.93	0.788	0.853	0.538	0.794	1.09	1	0.823	0.639	0.526	1	0.884	0.844	0.767
